Data: the supplement of paper PMC10307832

Tests used:
Test in all cases: relative viability (nuclei count vs DMSO), 5 days (fraction); higher = more cells survive
[1] = tested on: HOP-62
How it was run: (§1)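 Lung cancer cell lines, seeded in 1536-well plates, were treated the following day by pin tool with a single drug or with five library-drug doses (not always all listed) in √10 steps on top of a fixed anchor-drug dose. Cells were fixed and nuclei stained in one step after 5 days, and nuclei were counted. Relative viability is the nuclei count for treated wells divided by that for vehicle wells, reported as medians of duplicate plates.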

[2] = tested on: HARA
How it was run: as §1

[3] = tested on: NCI-H1755
How it was run: as §1

[4] = tested on: UMC-11
How it was run: as §1

[5] = tested on: NCI-H727
How it was run: as §1

[6] = tested on: NCI-H1437
How it was run: as §1

[7] = tested on: EMC-BAC-2
How it was run: as §1

[8] = tested on: NCI-H1651
How it was run: as §1

[9] = tested on: PC-3 [JPC-3]
How it was run: as §1

[10] = tested on: NCI-H1563
How it was run: as §1

[11] = tested on: ABC-1
How it was run: as §1

[12] = tested on: NCI-H3122
How it was run: as §1

[13] = tested on: NCI-H1734
How it was run: as §1

[14] = tested on: NCI-H441
How it was run: as §1

[15] = tested on: HCC-366
How it was run: as §1

[16] = tested on: COR-L23
How it was run: as §1

[17] = tested on: NCI-H2347
How it was run: as §1

[18] = tested on: NCI-H596
How it was run: as §1

[19] = tested on: RERF-LC-KJ
How it was run: as §1

[20] = tested on: SK-LU-1
How it was run: as §1

[21] = tested on: NCI-H1650
How it was run: as §1

[22] = tested on: CAL-12T
How it was run: as §1

`CN1CCN(CCOc2cc(OC3CCOCC3)c3c(Nc4c(Cl)ccc5c4OCO5)ncnc3c2)CC1` [Saracatinib] + CC(C)C[C@H](NC(=O)[C@H](Cc1ccccc1)NC(=O)c1cnccn1)B(O)O [Bortezomib] (partner 0.002 µM) gave a relative viability ([1]; first compound 0.02 µM) of 0.715, a relative viability ([1]; first compound 0.2 µM) of 0.718 and a relative viability ([1]; first compound 0.6325 µM) of 0.692. For the same compound, the relative viability ([1]; first compound 2 µM) was 1.06, the relative viability ([2]; first compound 0.02 µM) was 1.12 and the relative viability ([2]; first compound 0.6325 µM) was 1.08. The relative viability ([2]; first compound 2 µM) was 0.602, the relative viability ([3]; first compound 0.02 µM) was 1.02 and the relative viability ([3]; first compound 0.2 µM) was 0.792. For the same compound, the relative viability ([3]; first compound 0.6325 µM) was 1.08, the relative viability ([3]; first compound 2 µM) was 0.83 and the relative viability ([4]; first compound 0.02 µM) was 0.667. The relative viability ([4]; first compound 0.6325 µM) was 0.64, the relative viability ([4]; first compound 2 µM) was 0.494 and the relative viability ([5]; first compound 0.02 µM) was 0.923. The relative viability ([5]; first compound 0.2 µM) was 0.535, the relative viability ([5]; first compound 0.6325 µM) was 1.09 and the relative viability ([5]; first compound 2 µM) was 0.506. The relative viability ([6]; first compound 0.02 µM) was 0.502, the relative viability ([6]; first compound 0.2 µM) was 0.505 and the relative viability ([6]; first compound 0.6325 µM) was 0.437. It also gave a relative viability ([6]; first compound 2 µM) of 0.453, a relative viability ([7]; first compound 0.02 µM) of 1.02 and a relative viability ([7]; first compound 0.2 µM) of 1. It also gave a relative viability ([7]; first compound 0.6325 µM) of 1.19, a relative viability ([7]; first compound 2 µM) of 1.03 and a relative viability ([8]; first compound 0.02 µM) of 0.962. For the same compound, the relative viability ([8]; first compound 0.2 µM) was 0.775, the relative viability ([8]; first compound 0.6325 µM) was 1 and the relative viability ([8]; first compound 2 µM) was 0.844. It also gave a relative viability ([9]; first compound 0.02 µM) of 0.905, a relative viability ([9]; first compound 0.2 µM) of 0.721 and a relative viability ([9]; first compound 0.6325 µM) of 0.778. For the same compound, the relative viability ([9]; first compound 2 µM) was 0.486, the relative viability ([10]; first compound 0.02 µM) was 0.857 and the relative viability ([10]; first compound 0.2 µM) was 0.713. For the same compound, the relative viability ([10]; first compound 0.6325 µM) was 0.707, the relative viability ([10]; first compound 2 µM) was 0.712 and the relative viability ([11]; first compound 0.02 µM) was 0.275. It also gave a relative viability ([11]; first compound 0.2 µM) of 0.282, a relative viability ([11]; first compound 0.6325 µM) of 0.312 and a relative viability ([11]; first compound 2 µM) of 0.317. For the same compound, the relative viability ([12]; first compound 0.02 µM) was 1.05, the relative viability ([12]; first compound 0.6325 µM) was 0.964 and the relative viability ([12]; first compound 2 µM) was 0.815. The relative viability ([13]; first compound 0.02 µM) was 1.08, the relative viability ([13]; first compound 0.6325 µM) was 0.891 and the relative viability ([13]; first compound 2 µM) was 0.842. The relative viability ([14]; first compound 0.02 µM) was 0.451, the relative viability ([14]; first compound 0.2 µM) was 0.562 and the relative viability ([14]; first compound 0.6325 µM) was 1.03. The relative viability ([14]; first compound 2 µM) was 0.831, the relative viability ([15]; first compound 0.02 µM) was 1.04 and the relative viability ([15]; first compound 0.6325 µM) was 0.935. For the same compound, the relative viability ([15]; first compound 2 µM) was 0.769, the relative viability ([16]; first compound 0.02 µM) was 0.98 and the relative viability ([16]; first compound 0.2 µM) was 0.723. For the same compound, the relative viability ([16]; first compound 0.6325 µM) was 1.09, the relative viability ([16]; first compound 2 µM) was 1.05 and the relative viability ([17]; first compound 0.02 µM) was 1.01. For the same compound, the relative viability ([17]; first compound 0.2 µM) was 0.921, the relative viability ([17]; first compound 0.6325 µM) was 1.2 and the relative viability ([17]; first compound 2 µM) was 0.893. The relative viability ([18]; first compound 0.02 µM) was 0.98, the relative viability ([18]; first compound 0.2 µM) was 0.999 and the relative viability ([18]; first compound 0.6325 µM) was 1.01. It also gave a relative viability ([18]; first compound 2 µM) of 0.814, a relative viability ([19]; first compound 0.02 µM) of 1.09 and a relative viability ([19]; first compound 0.2 µM) of 1.23. It also gave a relative viability ([19]; first compound 0.6325 µM) of 0.993, a relative viability ([19]; first compound 2 µM) of 0.942 and a relative viability ([20]; first compound 0.02 µM) of 1.31. It also gave a relative viability ([20]; first compound 0.2 µM) of 1.19, a relative viability ([20]; first compound 0.6325 µM) of 0.829 and a relative viability ([20]; first compound 2 µM) of 0.735. It also gave a relative viability ([21]; first compound 0.02 µM) of 0.179, a relative viability ([21]; first compound 0.2 µM) of 0.192 and a relative viability ([21]; first compound 0.6325 µM) of 0.24. It also gave a relative viability ([21]; first compound 2 µM) of 0.206, a relative viability ([22]; first compound 0.02 µM) of 0.944 and a relative viability ([22]; first compound 0.2 µM) of 0.949. For the same compound, the relative viability ([22]; first compound 0.6325 µM) was 1.24 and the relative viability ([22]; first compound 2 µM) was 0.639.
